Laboratory results: ChEMBL document CHEMBL5321242, “Design and synthesis of 4-acetoxypentanamide derivatives of spliceostatin A and their biological evaluation towards prostate cancer treatment” (Bioorg Med Chem Lett, 2023)
Converted amounts (≈) assume the structure as drawn.

Key:
PNT2 = experiment: Cytotoxicity against human PNT2 cells assessed as reduction in cell viability upto 200 nM by MTS assay; type: toxicity, cell-based; details: pnt2, 0.2 µM
[1] = Partition coefficient, logD of the compound; type: physicochemical; details: octanol/water
[2] = Solubility of the compound in PBS buffer; type: physicochemical
[3] = Apparent permeability of the compound by PAMPA assay; type: ADME
[4] = Metabolic stability in human liver microsome assessed as parent compound remaining measured at 10 mins; type: ADME; details: liver microsomes, read-out: Stability
[5] = Metabolic stability in human liver microsome assessed as parent compound remaining measured at 60 mins; type: ADME; details: liver microsomes, read-out: Stability
[6] = Metabolic stability in mouse liver microsome assessed as parent compound remaining measured at 10 mins; type: ADME; details: liver microsomes, read-out: Stability
[7] = Metabolic stability in mouse liver microsome assessed as parent compound remaining measured at 60 mins; type: ADME; details: liver microsomes, read-out: Stability
[8] = Inhibition of AR-V7 expression in human 22Rv1 cells; type: functional, cell-based, CWR22R

SMILES	Papp [3] [×10⁻⁶ cm/s]	Activity (PNT2)	logD [1]	solubility [2] [µM]	remaining at 10 min [4] [%]	remaining at 1 h [5] [%]	remaining at 10 min [6] [%]	remaining at 1 h [7] [%]	IC50 [8] [nM]
CO[C@]1(C)C[C@@]2(CO2)[C@H](O)[C@@H](/C=C/C(C)=C/C[C@@H]2O[C@H](C)[C@H](NC(=O)/C=C\[C@H](C)OC(C)=O)C[C@@H]2C)O1			3.8	≥ 95	32	0.5	2.5	0	0.6
CC(=O)O[C@@H](C)/C=C\C(=O)N[C@@H]1C[C@H](C)[C@H](C/C=C(C)/C=C/[C@H]2OCC[C@@]3(CO3)[C@@H]2O)O[C@@H]1C			3.4	95 (≈ 45.4 µg/mL)	1.7	0	0.3	0.1	
CC(C)NCC(O)COc1cccc2ccccc12 (configuration not stated) [PROPRANOLOL]	3.5								
CC(=O)O[C@@H](C)/C=C/C(=O)N[C@@H]1C[C@H](C)[C@H](C/C=C(C)/C=C/[C@H]2OCC[C@@]3(CO3)[C@@H]2O)O[C@@H]1C	11.3		3.2	94.7 (≈ 45.2 µg/mL)	0	0	27	0	

Further lines, with some results ahead:

Papp [3] [×10⁻⁶ cm/s]	SMILES	Activity (PNT2)	logD [1]	solubility [2] [µM]	remaining at 10 min [4] [%]	remaining at 1 h [5] [%]	remaining at 10 min [6] [%]	remaining at 1 h [7] [%]	IC50 [8] [nM]
8.5	CC(=O)O[C@@H](C)CCC(=O)N[C@@H]1C[C@H](C)[C@H](C/C=C(C)/C=C/[C@H]2OCC[C@@]3(CO3)[C@@H]2O)O[C@@H]1C	Non-Toxic	3.1	≥ 95	6	0	5	0	
18.5	CC(=O)O[C@@H](C)/C=C(/C)C(=O)N[C@@H]1C[C@H](C)[C@H](C/C=C(C)/C=C/[C@H]2OCC[C@@]3(CO3)[C@@H]2O)O[C@@H]1C	Non-Toxic	3.6	≥ 95	1	0	0	0	
